Tests used:
zebrafish [1] = test: Screening for acetylcholine neurotransmission-related materials by innate color preference (blue/yellow color maze); assay type: in vivo, zebrafish (Danio rerio); conditions: acetylcholinesterase inhibitors vs egg water; five days old fish; FIG. 9(A)-(C)
Description: For this experiment, a straight line-shaped screening device (color maze) was used as a screening device, and blue and yellow that most differ in color preference were used. Further, five days old young fish born from the same male and female were used in the channels of the device and divided into a comparison group and an experimental group in this experiment. The number of entities used in the comparison group and the experimental group was 10 per channel. The final volume of egg water used in each channel was fitted into 4 mL. Considering the direction for illumination and time of transmission of drug to nerves, video-recording was performed for 30 minutes, and then, sleeves were changed. Then, video-recording was resumed for 30 minutes. The number of entities in each of the sections with different colors was counted every two minutes and was processed statistically. As statistics, the significance of the comparison group and the experimental group was identified through the T-test (SPSS, USA).
For acetylcholine (Sigma), tacrine (Sigma), galantamine (Sigma), and caffeine (Sigma) as reagents administered to the experimental group, concentrates including acetylcholine of 1000 mM, tacrine of 20 mM, and galantamine of 10 mM were prepared using third distilled water. 10 entities, five days after fertilization, were put in the channel of each color maze, and egg water of 4 mL was used. […]

zebrafish [2] = test: Color preference of zebrafish in blue/yellow color maze after alcohol; assay type: in vivo, zebrafish (Danio rerio); conditions: zebrafish 25 days after birth; alcohol 0.5%, 1%, 2% in egg water vs 0% comparison group; FIG. 7
Description: A method for detecting bioactive materials using the innate color preference instinct of fish based on the color recognition and color preference results according to the visual recognition of zebrafish was developed. In order to identify whether a method for screening a bioactive material according to the present invention may effectively detect candidate materials, alcohol was used as an example of the bioactive material to identify whether the color preference of zebrafish is changed between before applied to zebrafish and after applied to the zebrafish. This utilizes the common sense that humans' recognition ability is changed depending on the blood alcohol concentration.
A specific experimental method was as follows. A straight line-shaped screening device (color maze) with a combination of blue and yellow was prepared, and 40 zebrafish, 25 days after birth, were used. Every 10 of the fish were put in each straight-line groove, egg water of 5 ml was used, and then, video-recording was performed for 30 minutes using a video recorder. As predicted, many of the zebrafish moved to blue that is a preferred color of zebrafish. […] The number of zebrafish in each color section was counted through the video recorded over five times in total.

Row | SMILES | change in color preference (number of young zebrafish in blue and yellow sections) (zebrafish [1]) | ability of distinguishing colors (number of zebrafish in each color section) (zebrafish [2])
1 | Nc1c2c(nc3ccccc13)CCCC2 [tacrine, 1,2,3,4-tetrahydro-9-acridine amine] | moved to yellow that is their avoided color | –
2 | CCO [alcohol] | – | as the alcohol concentration increases, the number of zebrafish that can distinguish colors decreases
